According to ChEMBL document CHEMBL1139280, “Potent inhibitors of HCV-NS3 protease derived from boronic acids” (Bioorg Med Chem Lett, 2009):

Columns and labels:
[1] = Inhibition of HCV NS3 protease assessed as hydrolysis of chromogenic 4-phenylazophenyl ester from peptide fragment Ac-DTEDVVP(Nva)-O-4-PAP by spectrophotometry; parameters: species or system Hepacivirus hominis
Hepatitis C virus = test: Inhibition of HCV subgenomic RNAs replication in human hepatoma cells; format: functional, Hepacivirus hominis

Ki [1] [nM] | EC90 (Hepatitis C virus) [nM] | Structure (SMILES)
500 | > 5000 | CC[C@H](NC(=O)[C@@H]1[C@@H]2[C@H](CN1C(=O)[C@@H](NC(=O)NC(C)(C)C)C(C)(C)C)C2(C)C)B1O[C@@H]2C[C@@H]3C[C@@H](C3(C)C)[C@]2(C)O1
0.5 | > 5000 | CN(C[C@@H](NC(=O)N[C@H](C(=O)N1C[C@H]2[C@@H]([C@H]1C(=O)N[C@@H](CC1CCC1)B1O[C@@H]3C[C@@H]4C[C@@H](C4(C)C)[C@]3(C)O1)C2(C)C)C(C)(C)C)C(C)(C)C)S(C)(=O)=O
34 | > 5000 | CC[C@H](NC(=O)[C@@H]1[C@@H]2[C@H](CN1C(=O)[C@@H](NC(=O)N[C@H](CN(C)S(C)(=O)=O)C(C)(C)C)C(C)(C)C)C2(C)C)B1O[C@@H]2C[C@@H]3C[C@@H](C3(C)C)[C@]2(C)O1
52 | > 5000 | CC[C@H](NC(=O)[C@@H]1[C@@H]2[C@H](CN1C(=O)[C@@H](NC(=O)N[C@H](CN(C)S(C)(=O)=O)C(C)(C)C)C(C)(C)C)C2(C)C)B(O)O
14 | 350 | CC(C)(C)NC(=O)N[C@H](C(=O)N1C[C@H]2[C@@H]([C@H]1C(=O)NC(CC1CCC1)C(=O)C(N)=O)C2(C)C)C(C)(C)C (stereo partly drawn) [BOCEPREVIR]
380 | > 5000 | CC[C@H](NC(=O)C1[C@@H]2[C@H](CN1C(=O)[C@@H](NC(=O)NC(C)(C)C)C(C)(C)C)C2(C)C)B1O[C@@H]2C[C@@H]3C[C@@H](C3(C)C)[C@]2(C)O1 (stereo partly drawn)
0.2 | > 5000 | CN(C[C@@H](NC(=O)N[C@H](C(=O)N1C[C@H]2[C@@H]([C@H]1C(=O)N[C@@H](CC1CCC1)B(O)O)C2(C)C)C(C)(C)C)C(C)(C)C)S(C)(=O)=O
10 | > 5000 | CC(C)(C)NC(=O)N[C@H](C(=O)N1C[C@H]2[C@@H](C1C(=O)N[C@@H](CC1CCC1)B1O[C@@H]3C[C@@H]4C[C@@H](C4(C)C)[C@]3(C)O1)C2(C)C)C(C)(C)C (stereo partly drawn)
10 | > 5000 | CC[C@H](NC(=O)[C@@H]1[C@@H]2[C@H](CN1C(=O)[C@@H](NC(=O)NC(C)(C)C)C(C)(C)C)C2(C)C)B(O)O
